ChEMBL document CHEMBL3352087 (J Med Chem, 2014)
≈ marks a conversion by molar mass, not a printed value.

Legend:
[1] = Systemic clearance in CD-1 mouse at 3 mg/kg, iv and 10 mg/kg, po; type: ADME, organism-based; details: in vivo, read-out: CLH
[2] = test system: Brain; test: Free drug level in CD-1 mouse brain at 3 mg/kg, iv and 10 mg/kg, po measured at 4 hrs post dose; type: ADME, organism-based; details: in vivo
[3] = test system: Mus musculus; test: Unbound clearance in CD-1 mouse at 3 mg/kg, iv and 10 mg/kg, po; type: ADME, organism-based; details: in vivo
[4] = test system: Plasma; test: Free plasma concentration in CD-1 mouse at 3 mg/kg, iv and 10 mg/kg, po measured at 1 hr post dose; type: ADME, organism-based; details: in vivo
[5] = test system: Plasma; test: Free plasma concentration in CD-1 mouse at 3 mg/kg, iv and 10 mg/kg, po measured at 4 hrs post dose; type: ADME, organism-based; details: in vivo
[6] = test system: Brain; test: Free drug level in CD-1 mouse brain at 3 mg/kg, iv and 10 mg/kg, po measured at 1 hr post dose; type: ADME, organism-based; details: in vivo
[7] = molecular target: T1, Beta-secretase 1 (Homo sapiens, UniProt P56817); test: Inhibition of BACE1 in HEK293 cells expressing swedish double mutant APP assessed as amyloid beta (1 to 40) peptide level after 7 hrs by HTRF assay; type: cell-based
T1 sequence (P56817 whole entry): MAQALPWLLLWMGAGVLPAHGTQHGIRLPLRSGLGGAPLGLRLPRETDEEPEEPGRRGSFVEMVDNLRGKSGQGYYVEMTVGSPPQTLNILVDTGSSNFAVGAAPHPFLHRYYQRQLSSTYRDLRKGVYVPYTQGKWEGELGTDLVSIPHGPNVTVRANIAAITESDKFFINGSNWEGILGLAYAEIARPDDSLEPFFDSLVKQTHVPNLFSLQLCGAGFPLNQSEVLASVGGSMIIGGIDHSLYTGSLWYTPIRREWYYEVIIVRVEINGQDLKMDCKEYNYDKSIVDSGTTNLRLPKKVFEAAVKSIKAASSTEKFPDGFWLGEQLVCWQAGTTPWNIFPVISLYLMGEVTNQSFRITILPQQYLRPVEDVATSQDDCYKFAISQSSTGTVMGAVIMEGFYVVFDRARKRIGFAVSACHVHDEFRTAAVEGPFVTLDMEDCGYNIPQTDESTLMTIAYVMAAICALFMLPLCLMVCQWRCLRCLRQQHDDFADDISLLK

[8] = molecular target: T1, Beta-secretase 1; test: Inhibition of purified recombinant human BACE1 expressed in CHO cells assessed as uncleaved biotinylated sAPP after 2 hrs by HTRF assay
[9] = test system: MDR1 (human); test: (§1) Efflux ratio of permeability from basolateral to apical side to apical to basolateral side in pig LLC-PK1 cells transfected with human MDR1 at 1 uM; type: ADME, cell-based, Sus scrofa; details: LLC-PK1
[10] = test system: CHO; test: Ratio of IC50 for cathepsin D purified from human spleen to IC50 for purified recombinant human BACE1 expressed in CHO cells
[11] = test system: MDR1 (human); test: (§2) Apparent permeability from apical to basolateral side in pig LLC-PK1 cells transfected with human MDR1; type: ADME, cell-based, Sus scrofa; details: LLC-PK1
[12] = Ratio of free drug level in brain to plasma of Sprague-Dawley rat at 60 mg/kg, po measured at 5 hrs post dose; type: ADME, organism-based; set-up: dose 60 mg/kg, route oral; details: brain and plasma, read-out: BPR
[13] = Ratio of free drug level in brain of Sprague-Dawley rat at 60 mg/kg, po measured at 3 hrs post dose to IC50 for BACE1 in HEK293 cells expressing swedish double mutant APP; type: ADME, organism-based; set-up: dose 60 mg/kg, route oral; details: in vivo
[14] = Solubility of the compound at pH 7.2; type: physicochemical; details: buffer
[15] = Drug level in Sprague-Dawley rat CSF at 60 mg/kg, po measured at 5 hrs post dose; type: ADME, organism-based, Cerebrospinal fluid; set-up: dose 60 mg/kg, route oral; details: read-out: Drug uptake
[16] = Drug level in Sprague-Dawley rat CSF at 60 mg/kg, po measured at 3 hrs post dose; type: ADME, organism-based, Cerebrospinal fluid; set-up: dose 60 mg/kg, route oral; details: read-out: Drug uptake
[17] = test system: Rattus norvegicus; test: Reduction in amyloid beta(1 to 40) in Sprague-Dawley rat CSF at 60 mg/kg, po measured at 5 hrs post dose; type: functional; set-up: scale not given: the % may be the effect or the level left
[18] = test system: Plasma; test: Free plasma concentration in Sprague-Dawley rat at 60 mg/kg, po measured at 5 hrs post dose; type: ADME, organism-based; set-up: dose 60 mg/kg, route oral; details: in vivo
[19] = test system: Brain; test: Free drug level in Sprague-Dawley rat brain at 60 mg/kg, po measured at 3 hrs post dose; type: ADME, organism-based; set-up: dose 60 mg/kg, route oral; details: in vivo
[20] = test system: LLC-PK1; test: as §1; type: ADME, cell-based, Sus scrofa; details: llc-pk1, 1 µM, 1 µM
[21] = Ratio of free drug level in brain of Sprague-Dawley rat at 60 mg/kg, po measured at 5 hrs post dose to IC50 for BACE1 in HEK293 cells expressing swedish double mutant APP; type: ADME, organism-based; set-up: dose 60 mg/kg, route oral; details: in vivo
[22] = Ratio of free drug level in brain to plasma of Sprague-Dawley rat at 60 mg/kg, po measured at 3 hrs post dose; type: ADME, organism-based; set-up: dose 60 mg/kg, route oral; details: brain and plasma, read-out: BPR
[23] = test system: Plasma; test: Free plasma concentration in Sprague-Dawley rat at 60 mg/kg, po measured at 3 hrs post dose; type: ADME, organism-based; set-up: dose 60 mg/kg, route oral; details: in vivo
[24] = test system: Rattus norvegicus; test: Reduction in amyloid beta(1 to 40) in Sprague-Dawley rat CSF at 60 mg/kg, po measured at 3 hrs post dose; type: functional; set-up: scale not given: the % may be the effect or the level left
[25] = test system: Brain; test: Free drug level in Sprague-Dawley rat brain at 60 mg/kg, po measured at 5 hrs post dose; type: ADME, organism-based; set-up: dose 60 mg/kg, route oral; details: in vivo
[26] = Fraction unbound in Sprague-Dawley rat brain; type: ADME, tissue-based
[27] = test system: LLC-PK1; test: as §2; type: ADME, cell-based, Sus scrofa; details: llc-pk1
[28] = Fraction unbound in CD-1 mouse plasma; type: ADME, cell-free
[29] = Ratio of free drug level in brain of CD-1 mouse at 3 mg/kg, iv and 10 mg/kg, po measured at 1 hr post dose to IC50 for BACE1 in HEK293 cells expressing swedish double mutant APP; type: ADME, organism-based; details: hek293, 1 h
[30] = Fraction unbound in CD-1 mouse brain; type: ADME, tissue-based
[31] = Ratio of free drug level in brain to plasma of CD-1 mouse brain at 3 mg/kg, iv and 10 mg/kg, po measured at 4 hrs post dose; type: ADME, organism-based; details: read-out: BPR
[32] = Ratio of free drug level in brain to plasma of CD-1 mouse at 3 mg/kg, iv and 10 mg/kg, po measured at 1 hr post dose; type: ADME, organism-based; details: read-out: BPR
[33] = Ratio of free drug level in brain of CD-1 mouse at 3 mg/kg, iv and 10 mg/kg, po measured at 4 hrs post dose to IC50 for BACE1 in HEK293 cells expressing swedish double mutant APP; type: ADME, organism-based; details: hek293, 4 h

| SMILES | IC50 [7] [nM] | IC50 [8] [nM] | efflux ratio at 1 µM [9] | Ratio IC50 [10] | Papp A→B [11] [×10⁻⁶ cm/s] | further results |
| --- | --- | --- | --- | --- | --- | --- |
| CN1C(=O)[C@]2(N=C1N)c1cc(-c3cccnc3F)ccc1O[C@H]1CCOC[C@@H]12 | – | – | – | – | – | clearance [1]: 70 mL/min/kg; Drug uptake [2]: 8.4 nM; CL free [3]: 330 mL/min/kg; Cp(f) [4]: 320 nM; Cp(f) [5]: 75 nM; Drug uptake [6]: 11 nM |
| NC1=N[C@@]2(CO1)c1cc(-c3cccnc3F)ccc1O[C@@H]1CCCO[C@H]12 | 759 | 1100 | – | – | – | – |
| NC1=N[C@@]2(CS1)c1cc(-c3cccnc3F)ccc1O[C@@H]1CCCO[C@H]12 | 550 | 810 | 1.2 | > 250 | 37 | – |
| C[C@]12CCCO[C@@H]1[C@]1(COC(N)=N1)c1cc(-c3cccc(C#N)c3)ccc1O2 [listing 1 of 2 here] | 39 | 45 | – | – | – | Kp uu at 5 h [12]: 0.32; Ratio [13]: 2.3; solubility [14]: 57 µg/mL (≈ 152 µM); concentration at 5 h [15]: 230 nM; concentration at 3 h [16]: 150 nM; Activity [17]: 69%; Cp(f) [18]: 250 nM; Drug uptake(free) [19]: 88 nM; Ratio [20]: 3.4; Ratio [21]: 2.1; Kp uu at 3 h [22]: 0.33; Cp(f) [23]: 270 nM; Activity [24]: 63%; Drug uptake(free) [25]: 80 nM; fraction unbound [26]: 0.014; Papp [27]: 19 ×10⁻⁶ cm/s |
| C[C@]12CCCO[C@@H]1[C@]1(COC(N)=N1)c1cc(-c3cccc(C#N)c3)ccc1O2 [listing 2 of 2 here] | – | – | – | 1300 | – | – |
| C[C@]12CCCO[C@@H]1[C@]1(COC(N)=N1)c1cc(-c3cncc(Cl)c3)ccc1O2 (racemic) | 37 | 52 | 7.1 | 2100 | 25 | – |
| C[C@]12CCCO[C@@H]1[C@]1(COC(N)=N1)c1cc(-c3cccc(C#N)c3)ccc1O2 (racemic) [listing 1 of 2 here] | 100 | 98 | 3.2 | – | 30 | fraction unbound [28]: 0.039; Ratio [29]: 0.13; clearance [1]: 34 mL/min/kg; fraction unbound [30]: 0.013; Kp uu at 4 h [31]: 0.21; Kp uu at 1 h [32]: 0.24; Drug uptake [2]: 7.5 nM; Ratio [33]: 0.075; CL free [3]: 870 mL/min/kg; Cp(f) [4]: 54 nM; Cp(f) [5]: 35 nM; Drug uptake [6]: 13 nM |
| C[C@]12CCCO[C@@H]1[C@]1(COC(N)=N1)c1cc(-c3cccc(C#N)c3)ccc1O2 (racemic) [listing 2 of 2 here] | – | – | – | 840 | – | – |
| CN1C(=O)[C@]2(N=C1N)c1cc(-c3cccnc3F)ccc1O[C@H]1CCCO[C@@H]12 (relative stereo) | 12 | 48 | 31 | 50 | 6.8 | fraction unbound [28]: 0.18; Ratio [29]: 0.14; clearance [1]: 110 mL/min/kg; fraction unbound [30]: 0.037; Kp uu at 4 h [31]: 0.044; Kp uu at 1 h [32]: 0.014; Drug uptake [2]: 1.6 nM; Ratio [33]: 0.13; CL free [3]: 600 mL/min/kg; Cp(f) [4]: 120 nM; Cp(f) [5]: 36 nM; Drug uptake [6]: 1.7 nM |
| CN1C(=O)[C@]2(N=C1N)c1cc(-c3cccnc3F)ccc1O[C@@H]1CCCO[C@H]12 (relative stereo) | 1900 | 700 | – | 19 | – | – |
| CN1C(=O)[C@]2(N=C1N)c1cc(-c3cccnc3F)ccc1O[C@@]1(C)CCCO[C@@H]12 (relative stereo) | 5.7 | 13 | 110 | 510 | 5.3 | – |
| CN1C(=O)[C@]2(N=C1N)c1cc(-c3cccnc3F)ccc1O[C@]1(C)CCCO[C@H]12 (relative stereo) | 37 | 26 | 31 | 69 | 6 | – |
| C[C@]12CCCO[C@@H]1[C@]1(COC(N)=N1)c1cc(-c3cccnc3F)ccc1O2 (relative stereo) | 60 | 76 | 6.2 | 430 | 29 | fraction unbound [28]: 0.11; Ratio [29]: 0.1; clearance [1]: 150 mL/min/kg; fraction unbound [30]: 0.04; Kp uu at 4 h [31]: 0.16; Kp uu at 1 h [32]: 0.16; Drug uptake [2]: 1.1 nM; Ratio [33]: 0.018; CL free [3]: 1300 mL/min/kg; Cp(f) [4]: 37 nM; Cp(f) [5]: 6.8 nM; Drug uptake [6]: 6 nM |
| C[C@@]12CCCO[C@H]1[C@]1(COC(N)=N1)c1cc(-c3cccnc3F)ccc1O2 (relative stereo) | 130 | 210 | 4.8 | 48 | 33 | – |
| C[C@]12CCCO[C@@H]1[C@]1(CSC(N)=N1)c1cc(-c3cccnc3F)ccc1O2 (relative stereo) | 86 | 27 | 2 | 890 | 31 | – |
| C[C@]12CCCO[C@@H]1[C@]1(CSC(N)=N1)c1cc(-c3cncc(Cl)c3)ccc1O2 (relative stereo) | 48 | 51 | 3.3 | 1100 | 12 | – |
| C[C@]12CCCO[C@@H]1[C@]1(COC(N)=N1)c1cc(-c3cc(F)cc(Cl)c3)ccc1O2 (relative stereo) | 93 | 55 | 1.7 | 530 | 5.6 | – |
| C[C@]12CCCO[C@@H]1[C@]1(CSC(N)=N1)c1cc(-c3cc(F)cc(Cl)c3)ccc1O2 (relative stereo) | 110 | 41 | 1.2 | 830 | 1.4 | – |
| C[C@]12CCCO[C@@H]1[C@]1(CSC(N)=N1)c1cc(-c3cccc(C#N)c3)ccc1O2 (relative stereo) | 140 | 41 | 1.8 | 680 | 14 | – |
| C[C@]12CCCO[C@@H]1[C@]1(CSC(N)=N1)c1cc(-c3cncnc3)ccc1O2 (relative stereo) | 81 | 56 | 3.1 | 1100 | 29 | – |
| C[C@]12CCCO[C@@H]1[C@]1(COC(N)=N1)c1cc(-c3cncnc3)ccc1O2 (single isomer, unassigned) | 56 | 89 | 9.8 | > 2200 | 23 | – |
